We go through two molecules from US20120100188A1, “SOLID STATE FORMS OF PALIPERIDONE SALTS AND PROCESS FOR THE PREPARATION THEREOF” (Actavis Group PTC ehf, priority 2009, published 2012).

Format in all cases: physicochemical
Data set [1] is described as follows: Stability of the solid state form (as stated, no test data). The note with it: room temperature, enhanced temperature, relative high humidities, aqueous media. From the text:
In one embodiment, the process disclosed herein provides stable solid state forms of paliperidone salts. The term “stable solid state form” refers to stability of the solid state form under the standard temperature and humidity conditions of testing of pharmaceutical products, wherein the stability is indicated by preservation of the original polymorphic form.

The nature of data set [2]: Solubility test of paliperidone and its salts in methanol (100 mg of sample). The note with it: 100 mg of sample used. The procedure:
(§1) The solubility data of paliperidone and solid state forms of paliperidone salts is furnished in the below table. The 100 mg of sample was used for solubility test.

The nature of data set [3]: Solubility test of paliperidone and its salts in water (100 mg of sample). Particulars: 100 mg of sample used. The procedure: as §1

For `Cc1nc2n(c(=O)c1CCN1CCC(c3noc4cc(F)ccc34)CC1)CCCC2O.O=C(O)/C=C/C(=O)O` (stereo not shown), in data set [1], the “Stability of solid state form” value is “stable at room temperature, enhanced temperature, at relative high humidities, and in aqueous media”. Further, in data set [2], the “Solubility Methanol” value is on record as “Insoluble”.

Consider `Cc1nc2n(c(=O)c1CCN1CCC(c3noc4cc(F)ccc34)CC1)CCCC2O` (racemic) [Paliperidone, (±)-3-[2-[4-(6-fluoro-1,2-benzisoxazol-3-yl)-1-piperidinyl]ethyl]-6,7,8,9-tetrahydro-9-hydroxy-2-methyl-4H-pyrido[1,2-a]pyrimidin-4-one], for which the “Solubility Methanol” value in data set [2] was “Insoluble”. In data set [3], the “Solubility Water” value is “Insoluble”.
